Results from patent publication US10570174B2, “Peptides for the treatment of malignant proliferative diseases” (Yissum Research Development Company of the Hebrew …, priority 2015, dated 2020).

Assays:
[1] = system: D122 cells; experiment: Lung metastasis in mice i.v. injected with D122 cells, treatment started 7 days after cell injection; format: in vivo, C57BL/6 mice; details: i.p. 0.01 μg/kg from 7 days after cell injection
Description: To assess whether time of treatment affects the metastasis process, YHI1 was administered 7 days after tumor cell injection. Female C57BL/6 mice were i.v. injected with D122 cells (5×10^5 cells per mouse suspended in 100 μl PBS). YHI1 was i.p. administered at a dose of 0.01 μg/kg body weight (volume of 0.1 ml) 7 days after cell injection and thereafter up to 35 days, 3 times a week. Control mice received the vehicle (saline). Lung weight, number of tumors, lung histology (H&E) and survival were determined on day 35 after cell inoculation for each animal Lung weight was compared to a healthy lung removed from a naïve animal.

[2] = system: 4T1 mammary carcinoma cells; experiment: Lung metastasis in mice inoculated with 4T1 cells, YHI1 and derivatives vs control compounds (Example 6); format: in vivo, BALB/c mice; details: i.p., doses molar equivalent to 30 ng/kg YHI1, day 5 to day 16, 6 days a week
Description: YHI1 and its derivatives YHI2 and YHI4 were tested in comparison to a scrambled sequence (designated ‘YHI3’), IIIM1 and Arg-Pbf. All peptides were synthesized to over 98% purity.
Female BALB/c mice (9-10 weeks old) were iv injected with 4T1 cells (1×10^4 cells in 0.2 ml culture medium; medium was replaced with fresh medium one day prior to the injection). The tested compounds were ip administered on day 5 after tumor cell inoculation and continued daily thereafter 6 days a week until day 16, on which day the mice were sacrificed (in YHI3 group one animal died 14 days after cell injection before end of study). Each mouse received 10 injections during 11 consecutive days. A control group of mice received the same volume of saline (vehicle) injections. Each group contained 8 mice (n=8). Additional 4 mice remained naïve (without tumor cell injection and without any treatment), designated here as ‘pure control’. At the end of the experiments the mice were sacrificed and their lungs were removed, weighed and quantified for number of foci.

[3] = system: D122 cells (3LL Lewis lung carcinoma); experiment: Tumor growth in footpads of mice injected with D122 lung tumor cells, oral YHI1; format: in vivo, C57BL/6 mice
Description: (§1) YHI1 was synthesized by solid phase synthesis to over 95% purity. To assess the effect of YHI1 on local tumor growth, lung cancer cells were injected into footpads of mice to induce the formation of a topical tumor, and the tumor size was measured in mice treated with several dosages of YHI1 or with vehicle only. Two separate experiments were carried out using this model, one in which YHI1 and vehicle were administered orally and another in which YHI1 and vehicle were administered via intraperitoneal (i.p.) injection.
Female C57BL/6 mice were injected in the footpads with D122 cells (2×10^5 cells per mouse suspended in 50 μl PBS), a highly metastatic 3LL Lewis lung carcinoma. YHI1 (dissolved in saline) was orally administered at the indicated doses 8, 6, 4 and 1 day prior to cell injection and thereafter during 35 days, 3 times a week. Control mice received the vehicle (saline). Tumor size (diameter) was measured by a caliper. Baseline value (before cell injection) was subtracted from each measurement. Groups: control (n=10), and YHI1—0.1 mg/kg (n=9), 1 mg/kg (n=10), 5 mg/kg (n=8).
The results are expressed as mean±SE. p<0.05 for 5 mg/kg group versus control, for the period of 23-35 days (Mann-Whitney test).

[4] = system: 4T1 mammary carcinoma cells; experiment: Lung metastasis in mice inoculated with 4T1 mammary carcinoma cells (Example 4); format: in vivo, BALB/c mice; set-up: Score (histological score of lung, per specimen): scale not given here
Description: Female BALB/c mice (9-10 weeks) were i.v. injected with mammary 4T1 tumor cells (1×10^4 cells in 0.2 ml culture medium). YHI1 was i.p. administered to the mice at doses of 3, 10 and 30 ng/kg body weight (0.1 ml) on day 5 after tumor cell inoculation and thereafter 6 days a week, until day 21, on which day the mice were sacrificed. Control mice received saline (vehicle) injections. Additional 3 mice remained naïve (“pure control”, no cell injection, no treatment). Each dose group contained 10 mice. At the end of the experiments the mice were sacrificed, the lungs of the mice were removed, weighed and quantified for the number of foci.

[5] = system: D122 cells (3LL Lewis lung carcinoma); experiment: Tumor growth in footpads of mice injected with D122 lung tumor cells, i.p. YHI1; format: in vivo, C57BL/6 mice
Description: as §1
Female C57BL/6 mice were injected in the footpads with D122 cells (2×10^5 cells per mouse suspended in 50 μl PBS). YHI1 was i.p. administered at the indicated doses 8, 6, 4 or 1 day prior to cell injection and thereafter up to 34 days, 3 times a week. Control mice received the vehicle (saline). Tumor size (diameter) was measured by a caliper. Baseline value (before cell injection) was subtracted from each measurement. Groups: control (n=10), and YHI1—0.1 μg/kg (n=10), 1 μg/kg (n=10), 10 μg/kg (n=11), 100 μg/kg (n=9).
The results are expressed as mean±SE using the Kruskal-Wallis test and Dunnett's multiple comparison post test for statistical evaluation of the differences between the treated groups and control group at each time point.

[6] = system: B16-F10 cells; experiment: Tumorigenicity of B16-F10 melanoma cells injected subcutaneously; format: in vivo, C57BL/6 mice; details: 17 days after cell injection
Description: To examine the effect of YHI1 on melanoma tumor cells, female C57BL/6 mice (6-7 weeks) were subcutaneously injected in the lateral thoracic-abdominal area with B16-F10 cells (2×10^5 cells in 0.1 ml culture medium). YHI1 was i.p. administered at doses of 30 and 100 ng/kg body weight (0.1 ml) on day 3 after tumor cell inoculation and thereafter until day 20 of tumor cell inoculation, 6 times a week. Control mice received saline (vehicle) injections. Each dose group contained 10 mice. Tumor size was measured along the experiment and was expressed as multiplication of length and width of the tumor.

[7] = system: D122 cells; experiment: Lung metastasis in mice i.v. injected with D122 cells, treatment started before cell injection; format: in vivo, C57BL/6 mice; details: for reduction in Δ lung weight compared to control: day 35
Description: To examine the effect of YHI1 on cancer cell metastasis, lung metastasis was induced in mice, and the lung weight and the number of large metastases in mice treated with YHI1 or with vehicle only were measured.
Female C57BL/6 mice were i.v. injected with D122 cells (5×10^5 cells per mouse suspended in 100 μl PBS). YHI1 was i.p. administered at doses of 0.1 μg/kg body weight and 0.01 μg/kg body weight 8, 6, 4 and 1 day prior to cell injection and thereafter up to 35 days, 3 times a week. Control mice received the vehicle (saline).
Lung weight was determined on day 35 for each animal. Mean weight of lungs of healthy-non injected mice was subtracted from each value of the experimental and control groups, and the results are expressed as A lung weight. n=11, 10 and 9 mice for control, YHI1 0.1 and 0.01 μg/kg groups, respectively. Results are expressed as mean±SE using the Kruskal-Wallis test and Dunnett's multiple comparison post test for statistical evaluation of the differences in lung weight between the experimental groups and control mice. *p<0.05 for both 0.1 μg/kg and 0.01 μg/kg groups.
The number of large visible metastases in the lungs was next quantified. […] The results are expressed as mean±SE. *p<0.05 Mann Whitney test.
The lungs were then fixed, sectioned and stained with H&E for histopathological evaluation.

“H-Lys-Gly-His-Tyr-Ala-Glu-Arg(Pbf)-Val-Gly-OH (KGHYAEXVG; HELM PEPTIDE1{K.G.H.Y.A.E.[Cc1c(C)c(S(=O)(=O)NC(=N)NCCC[C@H](N[*:1])C(=O)[*:2])c(C)c2c1OC(C)(C)C2].V.G}$$$$V2.0; SMILES Cc1c(C)c(S(=O)(=O)NC(=N)NCCC[C@H](NC(=O)[C@H](CCC(=O)O)NC(=O)[C@H](C)NC(=O)[C@H](Cc2ccc(O)cc2)NC(=O)[C@H](Cc2c[nH]cn2)NC(=O)CNC(=O)[C@@H](N)CCCCN)C(=O)N[C@H](C(=O)NCC(=O)O)C(C)C)c(C)c2c1OC(C)(C)C2) [YHI1]” was tested, and the “histological lung sections (H&E)” value [1] was “only a single focus of viable tumor”, the “histological score of lung metastasis” value [1] was “significantly reduced” and the “lung weight lower than control” value ([1]; day 35) was 63%. The “number of large and medium sized metastases in the lungs” value ([1]; day 35) was “significantly reduced”, the survival ([1]; control 80% survival) was “full animal survival” and the “lung weight compared to saline control” value [2] was “significant reduction”. For the same substance, the “number of tumors per lung compared to saline control” value [2] was “significant reduction”, the “reduction of tumor size, comparison between doses” value ([3]; oral, 5 mg/kg vs 1 mg/kg and 0.1 mg/kg) was “more effective in reducing tumor size than the lower doses” and the “rate of tumor growth (tumor size, diameter)” value ([3]; oral, 0.1, 1, 5 mg/kg, 8, 6, 4, 1 day prior to cell injection and 3 times a week during 35 days) was “reduced the rate of tumor growth”. The “Description (blindly evaluated) of lung histology, per specimen” value ([4]; 30 ng/kg, individual specimens i-X) was “No metastases observed”, the “Score (histological score of lung, per specimen)” value ([4]; 30 ng/kg, individual specimens i-X, blindly evaluated) was 0 and the “effect on foci number” value ([4]; i.p. 3 ng/kg) was “no effect”. The “effect on lung weight” value ([4]; i.p. 3 ng/kg, day 5 to day 21, 6 days a week) was “no effect”, the “reduction of number of lung foci vs control” value ([4]; i.p. 10 ng/kg) was 94% and the “reduction of lung weight vs control” value ([4]; i.p. 10 ng/kg, day 5 to day 21, 6 days a week) was 65%. The “reduction of number of lung foci vs control” value ([4]; i.p. 30 ng/kg) was 100%, the “histological score of lung metastasis (group)” value ([4]; i.p. 30 ng/kg vs control) was “significantly reduced” and the “reduction of lung weight vs control” value ([4]; i.p. 30 ng/kg, day 5 to day 21, 6 days a week) was 78%. The histological lung section ([4]; i.p. 30 ng/kg, representative section) was “normal lung tissue with no evidence of metastases”, the “reduction of tumor size, comparison between doses” value ([5]; 0.1 μg/kg vs higher doses up to 100 μg/kg) was “more effective in reducing tumor size than higher doses” and the “rate of tumor growth (tumor size, diameter)” value ([5]; 0.1-100 μg/kg, 8, 6, 4, 1 day prior to cell injection and 3 times a week up to 34 days) was “reduced the rate of tumor growth”. The “effect on local tumor growth” value ([6]; i.p. 30 ng/kg compared with 100 ng/kg) was “slightly weaker effect”, the “reduction of local tumor growth (tumor size, length x width)” value ([6]; i.p. 100 ng/kg) was 55% and the “number of large visible metastases in the lungs” value ([7]; i.p. 0.01 μg/kg) was “totally eliminated visible metastases”. The “reduction in Δ lung weight compared to control” value ([7]; i.p. 0.01 μg/kg) was 87%, the “lung histopathology (H&E)” value ([7]; i.p. 0.01 μg/kg, representative section) was “tumor free” and the “reduction of number of large metastases compared to control” value ([7]; i.p. 0.1 μg/kg) was 58%. The “reduction in Δ lung weight compared to control” value ([7]; i.p. 0.1 μg/kg) was 78%.
In the case of “H-Lys-Gly-His-Tyr-Ala-Glu-Arg(NO2)-Val-Gly-OH (KGHYAEXVG; HELM PEPTIDE1{K.G.H.Y.A.E.[N=C(NCCC[C@H](N[*:1])C(=O)[*:2])N[N+](=O)[O-]].V.G}$$$$V2.0; SMILES CC(C)[C@H](NC(=O)[C@H](CCCNC(=N)N[N+](=O)[O-])NC(=O)[C@H](CCC(=O)O)NC(=O)[C@H](C)NC(=O)[C@H](Cc1ccc(O)cc1)NC(=O)[C@H](Cc1c[nH]cn1)NC(=O)CNC(=O)[C@@H](N)CCCCN)C(=O)NCC(=O)O) [YHI4, KGHYAER(NO2)VG, derivative of YHI1]”, the “lung weight compared to saline control” value [2] is reported as “significant reduction” and the “number of tumors per lung compared to saline control” value [2] is reported as “reduction was not statistically significant”.
In the case of “H-Lys-Gly-His-Tyr-Arg(Pbf)-Ala-Glu-Val-Gly-OH (KGHYXAEVG; HELM PEPTIDE1{K.G.H.Y.[Cc1c(C)c(S(=O)(=O)NC(=N)NCCC[C@H](N[*:1])C(=O)[*:2])c(C)c2c1OC(C)(C)C2].A.E.V.G}$$$$V2.0; SMILES Cc1c(C)c(S(=O)(=O)NC(=N)NCCC[C@H](NC(=O)[C@H](Cc2ccc(O)cc2)NC(=O)[C@H](Cc2c[nH]cn2)NC(=O)CNC(=O)[C@@H](N)CCCCN)C(=O)N[C@@H](C)C(=O)N[C@@H](CCC(=O)O)C(=O)N[C@H](C(=O)NCC(=O)O)C(C)C)c(C)c2c1OC(C)(C)C2) [YHI2, KGHYR(Pbf)AEVG, derivative of YHI1]”, the “lung weight compared to saline control” value [2] is reported as “significant reduction” and the “number of tumors per lung compared to saline control” value [2] is reported as “significant reduction”.
